Data on one compound can be found in paper PMC5218480 (PLoS ONE, 2017).

SMILES strings stand for the structures.

This assay concerns MV-4-11 cells. In words: Gene expression microarray analysis (Affymetrix PrimeView) and GSEA. The format is cell-based, human. The note with it: MV-4-11 cells, 48 hours. Also noted: RFU PODN (11730768_x_at) / Fold change /veh PODN (11730768_x_at) / RFU LINC00158 (11744669_a_at) / Fold change /veh LINC00158 (11744669_a_at) / RFU DUSP10 (11751237_a_at) / Fold change /veh DUSP10 (11751237_a_at) / RFU ID3 (11757404_x_at) / Fold change /veh ID3 (11757404_x_at) / RFU PLEKHG5 (11737974_s_at) / Fold change /veh PLEKHG5 (11737974_s_at) / RFU LRRC4B (11730491_at) / Fold change /veh LRRC4B (11730491_at) / RFU GIMAP4 (11747438_a_at) / Fold change /veh GIMAP4 (11747438_a_at) / RFU KRT8 (11758183_x_at) / Fold change /veh KRT8 (11758183_x_at) / RFU CNN1 (11734310_a_at) / Fold change /veh CNN1 (11734310_a_at) / RFU VPS37D (11726825_at) / Fold change /veh VPS37D (11726825_at) / RFU C10orf10 (11716522_x_at) / Fold change /veh C10orf10 (11716522_x_at) / RFU KIR2DL2 /// KIR2DL4 /// KIR2DL5A /// KIR2DL5B /// KIR2DS1 /// KIR2DS2 /// KIR2DS3 /// KIR2DS4 /// KIR3DL3 /// KIR3DL3 /// KIR3DS1 (11738374_at) / Fold change /veh KIR2DL2 /// KIR2DL4 /// KIR2DL5A /// KIR2DL5B /// KIR2DS1 /// KIR2DS2 /// KIR2DS3 /// KIR2DS4 /// KIR3DL3 /// KIR3DL3 /// KIR3DS1 (11738374_at) / RFU C1QL1 (11718748_at) / Fold change /veh C1QL1 (11718748_at) / RFU TMPRSS4 (11747572_a_at) / Fold change /veh TMPRSS4 (11747572_a_at) / RFU HAMP (11756126_x_at) / Fold change /veh HAMP (11756126_x_at) / RFU RNFT2 (11725882_a_at) / Fold change /veh RNFT2 (11725882_a_at) / RFU NR4A2 (11747474_a_at) / Fold change /veh NR4A2 (11747474_a_at) / RFU ABCC12 (11746883_a_at) / Fold change /veh ABCC12 (11746883_a_at) / RFU TMEM136 (11760407_x_at) / Fold change /veh TMEM136 (11760407_x_at) / RFU CLDN22 /// WWC2 (11732394_at) / Fold change /veh CLDN22 /// WWC2 (11732394_at) / RFU HLA-DPB1 (11760878_x_at) / Fold change /veh HLA-DPB1 (11760878_x_at) / RFU SPINT1 (11716480_a_at) / Fold change /veh SPINT1 (11716480_a_at) / RFU GAP43 (11754022_s_at) / Fold change /veh GAP43 (11754022_s_at) / RFU A4GNT (11735810_at) / Fold change /veh A4GNT (11735810_at) / RFU PRB3 (11715151_x_at) / Fold change /veh PRB3 (11715151_x_at) / RFU TUBB4B (11761932_at) / Fold change /veh TUBB4B (11761932_at) / RFU CAPN14 (11732068_a_at) / Fold change /veh CAPN14 (11732068_a_at) / RFU TMCC2 (11721928_a_at) / Fold change /veh TMCC2 (11721928_a_at) / RFU IRGQ (11745062_a_at) / Fold change /veh IRGQ (11745062_a_at) / RFU FAM174B (11720279_a_at) / Fold change /veh FAM174B (11720279_a_at) / RFU TMPRSS4 (11748680_a_at) / Fold change /veh TMPRSS4 (11748680_a_at) / RFU FAM212B (11763350_a_at) / Fold change /veh FAM212B (11763350_a_at) / RFU PLEKHG5 (11743358_a_at) / Fold change /veh PLEKHG5 (11743358_a_at) / RFU ZSCAN30 (11745921_a_at) / Fold change /veh ZSCAN30 (11745921_a_at) / RFU CMKLR1 (11741424_a_at) / Fold change /veh CMKLR1 (11741424_a_at) / RFU LOC101060620 /// MAPK8IP1 (11723275_at) / Fold change /veh LOC101060620 /// MAPK8IP1 (11723275_at) / RFU SPTSSB (11747773_x_at) / Fold change /veh SPTSSB (11747773_x_at) / RFU PRSS12 (11739890_at) / Fold change /veh PRSS12 (11739890_at) / RFU BIN1 (11741810_x_at) / Fold change /veh BIN1 (11741810_x_at) / RFU WNT11 (11732464_a_at) / Fold change /veh WNT11 (11732464_a_at) / RFU C10orf10 (11716521_a_at) / Fold change /veh C10orf10 (11716521_a_at) / RFU C5orf56 (11738089_at) / Fold change /veh C5orf56 (11738089_at) / RFU CYB561 (11721691_x_at) / Fold change /veh CYB561 (11721691_x_at) / RFU ANKRD19P (11752326_a_at) / Fold change /veh ANKRD19P (11752326_a_at) / RFU OR2T12 /// OR2T33 /// OR2T8 (11738714_s_at) / Fold change /veh OR2T12 /// OR2T33 /// OR2T8 (11738714_s_at) / RFU VCAN (11748164_a_at) / Fold change /veh VCAN (11748164_a_at) / RFU JSRP1 (11732532_at) / Fold change /veh JSRP1 (11732532_at) / RFU KRTAP10-11 (11738290_x_at) / Fold change /veh KRTAP10-11 (11738290_x_at) / RFU MYO3A (11730013_a_at) / Fold change /veh MYO3A (11730013_a_at) / RFU EBF3 (11725865_a_at) / Fold change /veh EBF3 (11725865_a_at) / RFU CAMK2N1 (11719241_x_at) / Fold change /veh CAMK2N1 (11719241_x_at) / RFU C5orf56 (11738088_a_at) / Fold change /veh C5orf56 (11738088_a_at) / RFU OLFML3 (11715873_a_at) / Fold change /veh OLFML3 (11715873_a_at) / RFU LOC100653217 /// NTM (11731650_a_at) / Fold change /veh LOC100653217 /// NTM (11731650_a_at) / RFU MAPK11 (11762145_a_at) / Fold change /veh MAPK11 (11762145_a_at) / RFU FIZ1 (11724087_x_at) / Fold change /veh FIZ1 (11724087_x_at) / RFU OASL (11726364_x_at) / Fold change /veh OASL (11726364_x_at) / RFU SOX15 (11748057_x_at) / Fold change /veh SOX15 (11748057_x_at) / RFU CD79A (11719716_a_at) / Fold change /veh CD79A (11719716_a_at) / RFU HIST1H1D (11736915_at) / Fold change /veh HIST1H1D (11736915_at) / RFU CASKIN2 (11723855_a_at) / Fold change /veh CASKIN2 (11723855_a_at) / RFU LOC730098 (11760151_x_at) / Fold change /veh LOC730098 (11760151_x_at) / RFU OR4N2 (11742367_at) / Fold change /veh OR4N2 (11742367_at) / RFU PRRT2 (11749266_a_at) / Fold change /veh PRRT2 (11749266_a_at) / RFU SNX32 (11753110_a_at) / Fold change /veh SNX32 (11753110_a_at) / RFU CDHR5 (11726645_a_at) / Fold change /veh CDHR5 (11726645_a_at) / RFU RCAN1 (11760418_a_at) / Fold change /veh RCAN1 (11760418_a_at) / RFU FAM167A (11723789_a_at) / Fold change /veh FAM167A (11723789_a_at) / RFU FAM26E (11764081_at) / Fold change /veh FAM26E (11764081_at) / RFU ISYNA1 (11749810_s_at) / Fold change /veh ISYNA1 (11749810_s_at) / RFU ACY1 (11761880_at) / Fold change /veh ACY1 (11761880_at) / RFU 11764098_at / Fold change /veh 11764098_at / RFU SAMD14 (11745864_x_at) / Fold change /veh SAMD14 (11745864_x_at) / RFU NPB (11741838_a_at) / Fold change /veh NPB (11741838_a_at) / RFU TMPRSS6 (11731388_a_at) / Fold change /veh TMPRSS6 (11731388_a_at) / RFU KRTAP10-2 (11738614_at) / Fold change /veh KRTAP10-2 (11738614_at) / RFU ARHGAP8 /// PRR5-ARHGAP8 (11727945_x_at) / Fold change /veh ARHGAP8 /// PRR5-ARHGAP8 (11727945_x_at) / RFU KRTAP5-7 /// NADSYN1 (11734609_at) / Fold change /veh KRTAP5-7 /// NADSYN1 (11734609_at) / RFU RASL12 (11751679_a_at) / Fold change /veh RASL12 (11751679_a_at) / RFU CDKN2B (11736163_a_at) / Fold change /veh CDKN2B (11736163_a_at) / RFU PRF1 (11729649_at) / Fold change /veh PRF1 (11729649_at) / RFU, ZNF638 /// ZNF638-IT1 / Fold change vs veh, ZNF638 /// ZNF638-IT1 / RFU, PANK3 / Fold change vs veh, PANK3 / RFU, SH3YL1 / Fold change vs veh, SH3YL1 / RFU, ZEB2 / Fold change vs veh, ZEB2 / RFU, NRIP1 / Fold change vs veh, NRIP1 / RFU, PTTG1IP / Fold change vs veh, PTTG1IP / RFU, CAPN2 / Fold change vs veh, CAPN2 / RFU, MED14 / Fold change vs veh, MED14 / RFU, SNORA58 / Fold change vs veh, SNORA58 / RFU, C1orf63 / Fold change vs veh, C1orf63 / RFU, LRRFIP1 / Fold change vs veh, LRRFIP1 / RFU, NDUFAF7 / Fold change vs veh, NDUFAF7 / RFU, SLC12A2 / Fold change vs veh, SLC12A2 / RFU, IBTK / Fold change vs veh, IBTK / RFU, ESF1 / Fold change vs veh, ESF1 / Fold change vs veh, TMEM50B / RFU, TAOK1 / Fold change vs veh, TAOK1 / RFU, ACBD3 / Fold change vs veh, ACBD3 / RFU, TMA16 / Fold change vs veh, TMA16 / RFU, RWDD3 / Fold change vs veh, RWDD3 / RFU, BCAT1 / Fold change vs veh, BCAT1 / RFU, EDEM3 / Fold change vs veh, EDEM3 / RFU, TMEM33 / Fold change vs veh, TMEM33 / RFU, WDR75 / Fold change vs veh, WDR75 / RFU, AHCTF1 / Fold change vs veh, AHCTF1 / RFU, TFRC / Fold change vs veh, TFRC / RFU, ZDHHC17 / Fold change vs veh, ZDHHC17 / RFU, NOM1 / Fold change vs veh, NOM1 / RFU, ARL8B / Fold change vs veh, ARL8B / RFU, ZBTB11 / Fold change vs veh, ZBTB11 / RFU, TAMM41 / Fold change vs veh, TAMM41 / RFU, KIAA1704 /// LOC100996395 / Fold change vs veh, KIAA1704 /// LOC100996395 / RFU, ING1 / Fold change vs veh, ING1 / RFU, TRMT61B / Fold change vs veh, TRMT61B / RFU, FUBP3 / Fold change vs veh, FUBP3 / RFU, TP53 / Fold change vs veh, TP53 / RFU, TNKS2 / Fold change vs veh, TNKS2 / RFU, ZFP14 / Fold change vs veh, ZFP14 / RFU, ACTR2 / Fold change vs veh, ACTR2 / RFU, PPP3R1 / Fold change vs veh, PPP3R1 / RFU, PIK3R1 / Fold change vs veh, PIK3R1 / RFU, HNRNPA1 / Fold change vs veh, HNRNPA1 / RFU, RNF170 / Fold change vs veh, RNF170 / RFU, ZNF28 / Fold change vs veh, ZNF28 / RFU, RNGTT / Fold change vs veh, RNGTT / RFU, OGT / Fold change vs veh, OGT / RFU, BRD1 / Fold change vs veh, BRD1 / RFU, MARS / Fold change vs veh, MARS / RFU, ZNF655 / Fold change vs veh, ZNF655 / RFU, FAHD1 / Fold change vs veh, FAHD1 / RFU, BDP1 / Fold change vs veh, BDP1 / RFU, LRRCC1 / Fold change vs veh, LRRCC1 / RFU, ARID1A / Fold change vs veh, ARID1A / RFU, ZNF146 / Fold change vs veh, ZNF146 / RFU, ZNF330 / Fold change vs veh, ZNF330 / RFU, GPN3 / Fold change vs veh, GPN3 / RFU, C9orf123 / Fold change vs veh, C9orf123 / RFU, N4BP2L2 / Fold change vs veh, N4BP2L2 / RFU, ARFIP1 / Fold change vs veh, ARFIP1 / RFU, FAM179B / Fold change vs veh, FAM179B / RFU, BCL10 / Fold change vs veh, BCL10 / RFU, UHRF1BP1L / Fold change vs veh, UHRF1BP1L / RFU, BET1 / Fold change vs veh, BET1 / RFU, CNOT2 / Fold change vs veh, CNOT2 / RFU, ZNF268 / Fold change vs veh, ZNF268 / Fold change vs veh, ZNF507 / RFU, DGCR2 / Fold change vs veh, DGCR2 / RFU, WDSUB1 / Fold change vs veh, WDSUB1 / Fold change vs veh, HSP90B1 /// MIR3652 / RFU, ADSS / Fold change vs veh, ADSS / RFU, GK / Fold change vs veh, GK / RFU, ZNF148 / Fold change vs veh, ZNF148 / RFU, TAF9 / Fold change vs veh, TAF9 / RFU, SLC1A5 / Fold change vs veh, SLC1A5 / RFU, SLMO2 / Fold change vs veh, SLMO2 / RFU, ABCC4 / Fold change vs veh, ABCC4 / RFU, LOC101060439 /// RAP1B / Fold change vs veh, LOC101060439 /// RAP1B / RFU, RFX7 / Fold change vs veh, RFX7 / RFU, GTPBP10 / Fold change vs veh, GTPBP10 / RFU, CNEP1R1 / Fold change vs veh, CNEP1R1 / RFU, BIVM-ERCC5 /// ERCC5 / Fold change vs veh, BIVM-ERCC5 /// ERCC5 / RFU, ILF3 / Fold change vs veh, ILF3 / RFU 11762660_at / Fold change /veh 11762660_at / RFU VCAN (11757783_s_at) / Fold change /veh VCAN (11757783_s_at) / RFU DDX43 (11728927_at) / Fold change /veh DDX43 (11728927_at) / RFU KRT8 (11758188_x_at) / Fold change /veh KRT8 (11758188_x_at) / RFU NKD1 (11759106_at) / Fold change /veh NKD1 (11759106_at) / RFU SRD5A1 (11742802_a_at) / Fold change /veh SRD5A1 (11742802_a_at) / RFU TPSAB1 /// TPSB2 (11721975_s_at) / Fold change /veh TPSAB1 /// TPSB2 (11721975_s_at) / RFU GSTM3 (11746129_a_at) / Fold change /veh GSTM3 (11746129_a_at) / RFU IL23R (11737362_x_at) / Fold change /veh IL23R (11737362_x_at) / RFU TMEM51 (11727254_a_at) / Fold change /veh TMEM51 (11727254_a_at) / RFU PIWIL2 (11732686_x_at) / Fold change /veh PIWIL2 (11732686_x_at) / RFU ORM1 (11744905_x_at) / Fold change /veh ORM1 (11744905_x_at) / RFU CCDC152 (11743942_at) / Fold change /veh CCDC152 (11743942_at) / RFU ECM1 (11717891_a_at) / Fold change /veh ECM1 (11717891_a_at) / RFU IL23R (11748794_a_at) / Fold change /veh IL23R (11748794_a_at) / RFU TNFAIP8L3 (11732012_x_at) / Fold change /veh TNFAIP8L3 (11732012_x_at) / RFU MBOAT4 (11741988_at) / Fold change /veh MBOAT4 (11741988_at) / RFU 11764193_at / Fold change /veh 11764193_at / RFU TMEM53 (11763286_at) / Fold change /veh TMEM53 (11763286_at) / RFU MAGEB2 (11727129_at) / Fold change /veh MAGEB2 (11727129_at) / RFU TMEM200A (11744735_a_at) / Fold change /veh TMEM200A (11744735_a_at) / RFU CCDC152 (11751479_a_at) / Fold change /veh CCDC152 (11751479_a_at) / RFU FAM211A (11726209_a_at) / Fold change /veh FAM211A (11726209_a_at) / RFU RGS16 (11746705_a_at) / Fold change /veh RGS16 (11746705_a_at) / RFU VCAN (11755009_s_at) / Fold change /veh VCAN (11755009_s_at) / RFU RHOB (11743442_s_at) / Fold change /veh RHOB (11743442_s_at) / RFU RGS16 (11720943_a_at) / Fold change /veh RGS16 (11720943_a_at) / RFU RGS16 (11720944_at) / Fold change /veh RGS16 (11720944_at) / RFU, VPS4B / Fold change vs veh, VPS4B / RFU, CREB1 / Fold change vs veh, CREB1 / RFU, DNAJC13 / Fold change vs veh, DNAJC13 / RFU, GNAQ / Fold change vs veh, GNAQ / RFU, CDK5R1 / Fold change vs veh, CDK5R1 / RFU, ZRANB3 / Fold change vs veh, ZRANB3 / RFU, CUL4A / Fold change vs veh, CUL4A / RFU, CCNY / Fold change vs veh, CCNY / RFU, UFL1 / Fold change vs veh, UFL1 / RFU, COG3 / Fold change vs veh, COG3 / RFU, DIAPH2 / Fold change vs veh, DIAPH2 / RFU, SKA2 / Fold change vs veh, SKA2 / RFU, AFF3 / Fold change vs veh, AFF3 / RFU, LMF1 / Fold change vs veh, LMF1 / RFU, IPO11 / Fold change vs veh, IPO11 / RFU, DFFB / Fold change vs veh, DFFB / RFU, FOXP1 / Fold change vs veh, FOXP1 / RFU, CARD8 / Fold change vs veh, CARD8 / RFU, STRN3 / Fold change vs veh, STRN3 / RFU, ADK / Fold change vs veh, ADK / RFU, RASSF2 / Fold change vs veh, RASSF2 / RFU, WIPF1 / Fold change vs veh, WIPF1 / RFU, LARP1B / Fold change vs veh, LARP1B / RFU, RASA1 / Fold change vs veh, RASA1 / RFU, RB1 / Fold change vs veh, RB1 / RFU, PPFIA1 / Fold change vs veh, PPFIA1 / RFU, MAT2A / Fold change vs veh, MAT2A / RFU, CCT5 / Fold change vs veh, CCT5 / RFU, WDR92 / Fold change vs veh, WDR92 / RFU, CUX1 / Fold change vs veh, CUX1 / RFU, TTC7A / Fold change vs veh, TTC7A / RFU, TMEM135 / Fold change vs veh, TMEM135 / RFU, DEPTOR / Fold change vs veh, DEPTOR / RFU, CPM / Fold change vs veh, CPM / RFU, DNAJB6 / Fold change vs veh, DNAJB6 / RFU, CACNA2D3 / Fold change vs veh, CACNA2D3 / RFU, DTX4 / Fold change vs veh, DTX4 / RFU, TFCP2 / Fold change vs veh, TFCP2 / RFU, GMCL1 /// GMCL1P1 / Fold change vs veh, GMCL1 /// GMCL1P1 / RFU, AEBP2 / Fold change vs veh, AEBP2 / RFU, SNHG1 /// SNORD22 /// SNORD25 /// SNORD26 /// SNORD27 /// SNORD28 /// SNORD29 /// SNORD31 / Fold change vs veh, SNHG1 /// SNORD22 /// SNORD25 /// SNORD26 /// SNORD27 /// SNORD28 /// SNORD29 /// SNORD31 / Fold change (Aza/veh), C12orf56 (ProbeSet 11735607_a_at) / Fold change (ACY-1035/veh), C12orf56 (ProbeSet 11735607_a_at) / Fold change (Aza/veh), FGFR1OP (ProbeSet 11751329_s_at) / Fold change (ACY-1035/veh), FGFR1OP (ProbeSet 11751329_s_at) / Fold change (Aza/veh), VPS36 (ProbeSet 11739960_a_at) / Fold change (ACY-1035/veh), VPS36 (ProbeSet 11739960_a_at) / RFU SYPL1 (11715823_x_at) / Fold change /veh SYPL1 (11715823_x_at) / RFU IGFBP7 (11715501_s_at) / Fold change /veh IGFBP7 (11715501_s_at) / RFU REEP3 (11722064_at) / Fold change /veh REEP3 (11722064_at) / RFU IGLL1 (11728026_x_at) / Fold change /veh IGLL1 (11728026_x_at): dose or concentration left out as unconfirmed.

`Nc1ncn([C@@H]2O[C@H](CO)[C@@H](O)[C@H]2O)c(=O)n1` [azacitidine]: the “RFU 11762660_at” value was 14.91 RFU.
